Drawing on patent publication US9273057B2 (Bristol-Myers Squibb Company, priority 2012, dated 2016), this text covers IC50 for 21 compounds.

The target in this assay is CK2A1 (CK2α/β) (Homo sapiens, UniProt P68400). The experiment in a line: CK2 kinase assay, CK2A1 (CK2α/β). The assay is classed as biochemical. As to conditions: Table A; read-out: CK2A1 (CK2α/β) (IC50).
CK2A1 (CK2α/β), sequence (P68400 whole entry, species assumed): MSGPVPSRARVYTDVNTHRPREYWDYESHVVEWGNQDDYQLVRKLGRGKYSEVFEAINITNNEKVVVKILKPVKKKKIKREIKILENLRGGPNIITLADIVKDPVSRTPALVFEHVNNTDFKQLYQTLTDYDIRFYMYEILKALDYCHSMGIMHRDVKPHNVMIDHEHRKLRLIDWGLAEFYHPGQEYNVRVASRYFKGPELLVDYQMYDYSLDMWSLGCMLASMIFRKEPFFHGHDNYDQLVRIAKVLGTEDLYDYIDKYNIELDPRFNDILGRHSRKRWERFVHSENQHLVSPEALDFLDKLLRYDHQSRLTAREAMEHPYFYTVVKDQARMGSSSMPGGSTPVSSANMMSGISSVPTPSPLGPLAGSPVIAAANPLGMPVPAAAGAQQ
CK2A1 (CK2α/β), sequence (P67870 whole entry partner, species assumed): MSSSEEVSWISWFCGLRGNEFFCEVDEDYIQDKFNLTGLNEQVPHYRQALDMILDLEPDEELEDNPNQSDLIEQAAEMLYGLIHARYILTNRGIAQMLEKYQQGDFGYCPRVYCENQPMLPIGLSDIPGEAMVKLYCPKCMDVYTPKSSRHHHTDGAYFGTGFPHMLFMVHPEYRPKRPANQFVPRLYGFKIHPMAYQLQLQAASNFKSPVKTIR
With `C[C@]1(N)CCN(c2cc(C#N)cc(Nc3nc(NC4CC4)c4ncc(C#N)n4n3)c2Cl)C[C@@H]1O` [Example 36, 2-((3-((3S,4S)-4-amino-3-hydroxy-4-methyl-1-piperidinyl)-2-chloro-5-cyanophenyl)amino)-4-(cyclopropylamino)imidazo [2,1-f][1,2,4]triazine-7-carbonitrile], the IC50 came out at 0.32 nM.

As for `CC(C)(O)[C@@H]1CN(c2cc(C#N)cc(Nc3nc(NC4CC4)c4ncc(C#N)n4n3)c2Cl)CCO1` [Example 37, 2-((2-chloro-5-cyano-3-((2S)-2-(1-hydroxy-1-methylethyl)-4-morpholinyl)phenyl)amino)-4-(cyclopropylamino)imidazo [2,1-f][1,2,4]triazine-7-carbonitrile], the IC50 is 0.35 nM.

Take `CC(C)(O)[C@H]1CN(c2cc(C#N)cc(Nc3nc(NC4CC4)c4ncc(C#N)n4n3)c2Cl)CCO1` [Example 38, 2-((2-chloro-5-cyano-3-((2R)-2-(1-hydroxy-1-methylethyl)-4-morpholinyl)phenyl)amino)-4-(cyclopropylamino)imidazo [2,1-f][1,2,4]triazine-7-carbonitrile]: the IC50 came to 1.2 nM.

Consider `N#Cc1cc(Nc2nc(NC3CC3)c3ncc(C#N)n3n2)c(Cl)c(N2CCC(O)CC2)c1` [Example 39, 2-((2-chloro-5-cyano-3-(4-hydroxy-1-piperidinyl)phenyl)amino)-4-(cyclopropylamino)imidazo [2,1-f][1,2,4]triazine-7-carbonitrile], for which the IC50 was determined as 0.46 nM.

Consider `N#Cc1cc(Nc2nc(NC3CC3)c3ncc(C#N)n3n2)c(Cl)c(N2CCC[C@@H](N)C2)c1` [Example 40, (R)-2-(3-(3-aminopiperidin-1-yl)-2-chloro-5-cyanophenylamino)-4-(cyclopropylamino)imidazo [1,2-f][1,2,4]triazine-7-carbonitrile], for which the IC50 was found to be 2.49 nM.

Take `COC(=O)N[C@@H]1CCCN(c2cc(C#N)cc(Nc3nc(NC4CC4)c4ncc(C#N)n4n3)c2Cl)C1` [Example 41, methyl ((3R)-1-(2-chloro-5-cyano-3-((7-cyano-4-(cyclopropylamino)imidazo [2,1-f][1,2,4]triazin-2-yl)amino)phenyl)-3-piperidinyl)carbamate]: the IC50 is 0.94 nM.

As to `N#Cc1cc(Nc2nc(NC3CC3)c3ncc(C#N)n3n2)c(Cl)c(N2CCC[C@@H](NC3COC3)C2)c1` [Example 42, 2-((2-chloro-5-cyano-3-((3R)-3-(3-oxetanylamino)-1-piperidinyl)phenyl)amino)-4-(cyclopropylamino)imidazo [2,1-f][1,2,4]triazine-7-carbonitrile], the IC50 amounted to 2.58 nM.

As to `CC(C)(O)CN[C@@H]1CCCN(c2cc(C#N)cc(Nc3nc(NC4CC4)c4ncc(C#N)n4n3)c2Cl)C1` [Example 43, 2-((2-chloro-5-cyano-3-((3R)-3-((2-hydroxy-2-methylpropyl)amino)-1-piperidinyl)phenyl)amino)-4-(cyclopropylamino)imidazo [2,1-f][1,2,4]triazine-7-carbonitrile], the IC50 is 1.82 nM.

Turning to `N#Cc1cc(Nc2nc(NC3CC3)c3ncc(C#N)n3n2)c(Cl)c(N2CC[C@@H](NC3COC3)C2)c1` [Example 44, 2-((2-chloro-5-cyano-3-((3R)-3-(3-oxetanylamino)-1-pyrrolidinyl)phenyl)amino)-4-(cyclopropylamino)imidazo [2,1-f][1,2,4]triazine-7-carbonitrile], the IC50 stood at 0.33 nM.

As to `CC1(O)CN([C@@H]2CCCN(c3cc(C#N)cc(Nc4nc(NC5CC5)c5ncc(C#N)n5n4)c3Cl)C2)C1` [Example 45, 2-((2-chloro-5-cyano-3-((3R)-3-(3-hydroxy-3-methyl-1-azetidinyl)-1-piperidinyl)phenyl)amino)-4-(cyclopropylamino)imidazo [2,1-f][1,2,4]triazine-7-carbonitrile], the IC50 is 0.96 nM.

In the case of `N#Cc1cc(Nc2nc(NC3CC3)c3ncc(C#N)n3n2)c(Cl)c(N2CC[C@@H](N)C2)c1` [Example 46, (R)-2-(3-(3-aminopyrrrolidin-1-yl)-2-chloro-5-cyanophenylamino)-4-(cyclopropylamino)imidazo [1,2-f][1,2,4]triazine-7-carbonitrile], the IC50 came to 1.31 nM.

Turning to `CC1(O)CN([C@@H]2CCN(c3cc(C#N)cc(Nc4nc(NC5CC5)c5ncc(C#N)n5n4)c3Cl)C2)C1` [Example 47, (R)-2-(2-chloro-5-cyano-3-(3-(3-hydroxy-3-methylazetidin-1-yl)pyrrolidin-1-yl)phenylamino)-4-(cyclopropylamino)imidazo [1,2-f][1,2,4]triazine-7-carbonitrile], the IC50 turned out to be 1.73 nM.

Consider `N#Cc1cc(Nc2nc(NC3CC3)c3ncc(C#N)n3n2)c(Cl)c(N2CCC3(CC2)COC3)c1` [Example 48, 2-((2-chloro-5-cyano-3-(2-oxa-7-azaspiro[3.5]non-7-yl)phenyl)amino)-4-(cyclopropylamino)imidazo [2,1-f][1,2,4]triazine-7-carbonitrile], for which the IC50 worked out at 0.71 nM.

Consider `CN(CCN)c1cc(C#N)cc(Nc2nc(NC3CC3)c3ncc(C#N)n3n2)c1Cl` [Example 50], for which the IC50 turned out to be 0.63 nM.

With `CN(CCNC1COC1)c1cc(C#N)cc(Nc2nc(NC3CC3)c3ncc(C#N)n3n2)c1Cl` [Example 51, 2-((2-chloro-5-cyano-3-(methyl(2-(3-oxetanylamino)ethyl)amino)phenyl)amino)-4-(cyclopropylamino)imidazo [2,1-f][1,2,4]triazine-7-carbonitrile], the IC50 was 2.47 nM.

Turning to `N#Cc1cc(Nc2nc(NC3CC3)c3ncc(C#N)n3n2)c(Cl)c(N2CCN(CC(F)F)CC2)c1` [Example 52, 2-((2-chloro-5-cyano-3-(4-(2,2-difluoroethyl)-1-piperazinyl)phenyl)amino)-4-(cyclopropylamino)imidazo[2,1-f][1,2,4]triazine-7-carbonitrile], the IC50 is 0.66 nM.

Turning to `COC(=O)N1CC(N2CCN(c3cc(C#N)cc(Nc4nc(NC5CC5)c5ncc(C#N)n5n4)c3Cl)CC2)C1` [Example 53, methyl 3-(4-(2-chloro-5-cyano-3-((7-cyano-4-(cyclopropylamino)imidazo[2,1-f][1,2,4]triazin-2-yl)amino)phenyl)-1-piperazinyl)-1-azetidinecarboxylate], the IC50 was 2.69 nM.

With `COCCN1CCN(c2cc(C#N)cc(Nc3nc(NC4CC4)c4ncc(C#N)n4n3)c2Cl)CC1` [Example 56], the IC50 amounted to 1.14 nM.

Take `COCCN1CC(N2CCN(c3cc(C#N)cc(Nc4nc(NC5CC5)c5ncc(C#N)n5n4)c3Cl)CC2)C1` [Example 61, 2-((2-chloro-5-cyano-3-(4-(1-(2-methoxyethyl)-3-azetidinyl)-1-piperazinyl)phenyl)amino)-4-(cyclopropylamino) imidazo[2,1-f][1,2,4] triazine-7-carbonitrile]: the IC50 came out at 0.96 nM.

Turning to `N#Cc1cc(Nc2nc(NC3CC3)c3ncc(C#N)n3n2)c(Cl)c(N2CCN(C3CCC3=O)CC2)c1` (stereo not drawn) [Example 62, 2-((2-chloro-5-cyano-3-(4-(2-oxocyclobutyl)piperazin-1-yl)phenyl)amino)-4-(cyclopropylamino) imidazo[2,1-f][1,2,4] triazine-7-carbonitrile], the IC50 is 3.02 nM.

For `COCCN1CCC(N2CCN(c3cc(C#N)cc(Nc4nc(NC5CC5)c5ncc(C#N)n5n4)c3Cl)CC2)CC1` [Example 63, 2-((2-chloro-5-cyano-3-(4-(1-(2-methoxyethyl)-4-piperidinyl)-1-piperazinyl)phenyl)amino)-4-(cyclopropylamino) imidazo[2,1-f][1,2,4] triazine-7-carbonitrile], the IC50 was 0.7 nM.
